# Measurements published in patent US20230103444A1 (The Regents of the University of Colorado, a Body Corporate, priority 2020, published 2023).
# Where two headings read alike, the source gives them in different places.
# Legend:
# SW620 tumor organoids = assay: Tumor organoid cytotoxicity (CellTiter-Glo 3D); conditions: Homo sapiens
# HCT116 tumor organoids = assay: Tumor organoid cytotoxicity (CellTiter-Glo 3D); format: cell-based, human; conditions: Homo sapiens
# Procedure: Cell based cytotoxicity dose response and combination studies. […] Plates were then incubated for 3 days before treatment.
# Cell Line Tumor Organoid Culture.
# Tumor Organoid Cytotoxicity.
# [1] = Human microsomal stability; format: in vitro ADME; conditions: human microsomes, Table 6, read-out: Microsomal stability Human t1/2
# [2] = Mouse liver microsome stability; conditions: CD-1, mouse, liver microsomes, pH 7.4, Microsomal stability Mouse t1/2 (min), Table 6
# TCF-transcription = assay: TOPflash TCF-transcriptional reporter assay; format: cell-based, human; conditions: TOPflash reporter in CRC cell lines (SW620, HCT116, DLD1CHD1L-OE), 24 h
# Procedure: TOPflash assay (Millipore, Billerica, Mass.) was used to evaluate TCF transcriptional activity in CRC cells. A total of 20,000 cells per well were plated into 96-well white plates and transfected with TransIT®-LT1 transfection reagent (Mirus, Madison, Wis.). Cells were incubated with transfection mix for 24 h. Next, cells were washed with phosphate-buffered solution (PBS) and a 1:1 ratio of PBS:ONE-Glo™ luciferase reagent Promega (Madison, Wis.) was added and the luminescence was detected within 10 min. A duplicate experiment was conducted to measure cell viability using CellTiter-Glo® Luminescent Cell Viability Assay (Promega, Madison, Wis.), which was used to normalize TOPflash luminescence to obtain the fold change in TCF activity. Experiments were replicated 2× (n=3 for each experiment).
# TCF-transcriptional Reporter Assay. […] Afterwards, cells from the white solid bottom plate were carefully washed with PBS and a 1:1 ratio of PBS:One-Glo Luciferase Assay System (Promega) was added, incubated for 10 min, and luminescence was quantified on Envision plate reader (PerkinElmer) for TCF-activity. As a control, cells from the clear plate were lysed with Mammalian Cell Lysis Buffer (Promega) and the total protein from each well was quantified with BCA assay (ThermoFisher).
# cat-CHD1L ATPase = molecular target: T1, cat-CHD1L ATPase (Homo sapiens, UniProt Q86WJ1); assay: CHD1L ATPase assay with recombinant catalytic domain (cat-CHD1L); format: biochemical; conditions: for inhibition at 20 µM: confirmed HTS hits, HTS at 20 μM, read-out: inhibition against cat-CHD1L ATPase
# T1 construct: inferred from Ni-NTA / imidazole purification; made in house; host or cells: E. coli Rosetta 2 (DE3) pLysS; constructs were a gift from Helena Berglund, Karolinska Institute
# T1 sequence (Q86WJ1 16-611 limits assumed): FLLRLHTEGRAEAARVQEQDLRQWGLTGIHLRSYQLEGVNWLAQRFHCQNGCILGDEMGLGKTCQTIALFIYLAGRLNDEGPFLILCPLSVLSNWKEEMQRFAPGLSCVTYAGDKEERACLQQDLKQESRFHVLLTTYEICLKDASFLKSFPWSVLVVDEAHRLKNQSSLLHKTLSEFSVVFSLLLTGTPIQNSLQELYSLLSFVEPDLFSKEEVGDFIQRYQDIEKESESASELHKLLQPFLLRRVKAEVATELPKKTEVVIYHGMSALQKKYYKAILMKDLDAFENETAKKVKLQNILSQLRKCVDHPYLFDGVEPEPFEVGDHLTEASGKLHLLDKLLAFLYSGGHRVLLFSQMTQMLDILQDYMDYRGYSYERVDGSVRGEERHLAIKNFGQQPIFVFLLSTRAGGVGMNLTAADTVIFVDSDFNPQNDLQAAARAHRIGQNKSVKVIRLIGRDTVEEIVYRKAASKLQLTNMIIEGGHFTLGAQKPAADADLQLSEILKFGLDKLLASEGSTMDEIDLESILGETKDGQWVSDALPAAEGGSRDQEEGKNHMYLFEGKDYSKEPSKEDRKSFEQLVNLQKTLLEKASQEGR
# Procedure: All reactions were carried out using low volume non-binding surface 384-well plates (Corning Inc., Corning N.Y.). cat-CHD1L or fl-CHD1L (100 nM) and 200 nM c-Myc DNA or mononucelosome (Active Motif, Carlsbad, Calif.) were added to a buffer containing 50 mM Tris pH 7.5, 50 mM NaCl, 1 mM DTT, 5% glycerol, and the reaction was initiated by the addition of 10 μM ATP (New England Biolabs, Ipswich, Mass.) to a total volume of 10 μL and incubated at 37° C. for 1 h. ATPase activity was assayed by adding 500 nM of Phosphate Sensor (Life Technologies, Carlsbad, Calif.), containing labeled phosphate-binding protein, specifically labeled with the fluorophore MDCC, and measuring excitation (430 nm) and emission (450 nm) immediately on an EnVision® plate reader (PerkinElmer, Hopkinton, Mass.). An inorganic phosphate standard curve was used to convert the fluorescence to [Pi], and enzyme kinetics were determined using Prism8 (GraphPad Software, San Diego, Calif.).
# Assay composition was the same as described above using cat-CHD1L, except that the reaction mixture volume was modified to accommodate addition of drug or DMSO. Using a Janus® liquid handler (PerkinElmer, Hopkinton, Mass.), a selected amount of compounds dissolved in 100% DMSO were mixed with 50 mM Tris pH 7.5, 50 mM NaCl, 1 mM DTT, 5% glycerol buffer to 200 μM in 10% DMSO. […] The negative control used was 1% DMSO and 10 mM EDTA was used as a positive control. Reactions were initiated with the addition of 10 μM ATP and incubated at 37° C. for 1 h. ATPase activity was measured by fluorescence by adding 500 nM Phosphate Sensor. cat-CHD1L was screened against a 20,000-compound diversity set from Life Chemicals (Woodbridge, Conn.) and a Kinase Inhibitor library from Selleck Chemicals (Houston, Tex.).
# CHD1L Enzyme ATPase Assay. […] All reactions were carried out using low volume nonbinding surface 384-well plates (Corning Inc., Corning, N.Y.). […] The reaction was initiated by the addition of 10 μmol/L ATP (New England Biolabs, Ipswich, Mass.) to a total volume of 10 μL and incubated at 37° C. for 1 hour. ATPase activity was measured by adding 500 nmol/L of Phosphate Sensor (ThermoFisher, Waltham, Mass.) measuring excitation (430 nm) and emission (450 nm) immediately on an Envision plate reader (PerkinElmer, Waltham, Mass.). Background signal was determined by using all assay components excluding the enzyme.
# [3] = test system: vimentin promoter activity; assay: VimPro-GFP reporter 3D high-content imaging in tumor organoids; format: cell-based, human; conditions: 72 h
# Procedure: (§1) After validating hits 5-7 against CHD1L mediated TCF transcription, the ability of these compounds to reverse EMT and other malignant properties in CRC were evaluated. E-cadherin and vimentin are putative biomarkers for the epithelial and mesenchymal phenotypes, respectively. [McDonald et al., 2015] Loss of E-cadherin and gain of vimentin are also clinical biomarkers of poor prognosis. [Yun et al., 2014; Richardson et al., 2012; Dhanasekaran et al., 2001; Kashiwagi et al., 2010; Toiyama et al., 2013] Accordingly, lentiviral promoter driven reporters for E-cadherin (pCDH1-EcadPro-RFP) and vimentin (pCDH1-VimPro-GFP) were developed, which faithfully report E-cadherin and vimentin protein expression, respectively. [Zhou et al., 2016; Abraham et al., 2019] SW620 cells transduced with either EcadPro-RFP or VimPro-GFP were cultured as tumor organoids for 72 h, reaching a diameter of 600 μm. Tumor organoids were treated with compounds 5-7 for an additional 72 h to determine the effective concentration 50 percent (EC50) for modulating promoter activity. Changes in promoter expression was quantified using a 3D confocal image […] based high-content analysis algorithm (FIG. 2A-2B). [Zhou et al., 2016; Abraham et al., 2019]
# (§2) Stable VimPro-GFP or EcadPro-RFP SW620 reporter cells were generated using pCDH imPro-GFP-EF1-puro virus or pCDH-EcadPro-mCherry-EF1-puro virus as previously reported. [Zhou et al., 2016; Abraham et al., 2019] The stable fluorescently labeled reporter cells were used to generate tumor organoids as described herein. Tumor organoids were treated with CHD1L inhibitors at 10 μM for an additional 72 h. Following treatment, tumor organoids were stained with 16 μM of Hoechst 33342 for 1 h (nuclei stain). Images were taken with a 5× air objective. Z-stacks were set at 26.5 μm apart for a total of 15 optical slices. Imaging and high-content analysis were performed using an Opera Phenix™ and Harmony® software (PerkinElmer, Hopkinton, Mass.). Nuclei were identified within each layer and cells were found with either GFP or mCherry channel. The fluorescence intensities of each channel were calculated and thresholds were set based on the background intensities. Percentages of GFP or mCherry RFP positive cells were calculated and normalized to the DMSO treated group.
# 3D High-Content Imaging and Analysis of EMT Dual-Reporter Activity. Tumor organoids were imaged using the Opera Phenix high-content screening system (PerkinElmer) in confocal mode utilizing a 10× air objective (NA 0.3). […] Organoids were also imaged in Brightfield to segment and perform high-content analysis of dual reporter specific fluorescence intensity. […] Both fluorescent signals were quantified and normalized as previously described. […]
# [4] = test system: E-cadherin promoter activity; assay: EcadPro-RFP reporter 3D high-content imaging in tumor organoids; format: cell-based; conditions: 72 h
# Procedure: as §1
# CHD1L has been reported to confer anti-apoptotic activity by inhibiting activation of caspase-dependent apoptosis. [Li et al., 2013; Sun et al., 2016] Additionally, reversal or inhibition of EMT is known to restore apoptotic activity of cancer cells. [Lu et al., 2014] To determine if CHD1L inhibitors reverse EMT prior to induction of cell death, E-cadherin expression by EcadPro-RFP reporter activity was monitored and cytotoxicity was measured using the CellTox™ Green assay. Cells were treated with CHD1L inhibitors for 72 h and imaged every 2 h.
# as §2
# 3D High-Content Imaging and Analysis of EMT Dual-Reporter Activity. Tumor organoids were imaged using the Opera Phenix high-content screening system (PerkinElmer) in confocal mode utilizing a 10× air objective (NA 0.3). The following excitation and emission (Ex/Em) wavelengths were employed: RFP (561/570-630) and GFP (488/500-550). Organoids were also imaged in Brightfield to segment and perform high-content analysis of dual reporter specific fluorescence intensity. RFP fluorescent signal correlates with E-Cadherin promoter activity, while GFP fluorescent signal is correlates with vimentin promoter activity. Both fluorescent signals were quantified and normalized as previously described. (Esquer, et al., 2021)
# [5] = SW-620, read-out: IC50 of cytotoxicity in SW620 cells
# [6] = HCT-116, 72 h, Table 6, read-out: 3 D Cytotoxicity 72 hr IC50 (μM) HCT116
# [7] = HCT-116, single agent, Table 4A, read-out: Tumor Organoid Cytotoxicity IC50 (μM) HCT116
# [8] = units given with the values (nM, μM), read-out: activity in dose response studies against cat-CHD1L ATPase (IC50, FIG. 1A)
# [9] = SW-620, 72 h, read-out: 3 D Cytotoxicity 72 hr IC50 (μM) SW620
# [10] = Table 6, read-out: cat-CHD1L inhibition IC50
# [11] = SW620 or HCT116 tumor organoids
Structure (SMILES),half-life [1] [h],half-life at 10 μM [2] [h],IC50 (cat-CHD1L ATPase; [10]) [nM],IC50 (SW620 tumor organoids; [5]) [µM],IC50 (HCT116 tumor organoids; [6]) [µM],IC50 (SW620 tumor organoids; [9]) [µM],further results
"Cc1cc(Nc2ccc(NC(=O)Cc3cccc4ccccc34)cc2)nc(N2CCCC2)n1 [Compound 6.16, N-(4-((6-methyl-2-(pyrrolidin-1-yl)pyrimidin-4-yl)amino)phenyl)-2-(naphthalen-1-yl)acetamide]",0.992,0.925,–,< 10,2.4,–,IC50 (HCT116 tumor organoids; [7]): 2.43 µM
CCc1nnc(NS(=O)(=O)c2ccc(NC(=O)c3nc4ccccc4s3)cc2)s1 [Compound 4],–,–,–,–,–,–,"inhibition of TCF-transcription, in words (TCF-transcription): modest activity in cells with no dose dependent inhibition; inhibition at 20 µM (cat-CHD1L ATPase): > 50%; IC50 (cat-CHD1L ATPase; [8]): 900 to 5000 nM"
Cc1ccc(Nc2nc(N3CCN(CCO)CC3)nc3nccnc23)cc1Cl [Compound 7],–,–,–,–,–,–,"EC50 ([3]; Homo sapiens, SW-620, read-out: EC50 downregulation of vimentin promoter activity, SW620 tumor organoids): 12.8 ± 1.3 µM; EC50 ([4]; Homo sapiens, SW-620, read-out: EC50 upregulation of E-cadherin promoter activity, SW620 tumor organoids): 28 ± 0.003 µM; inhibition at 20 µM (cat-CHD1L ATPase): > 50%; IC50 (cat-CHD1L ATPase; [8]): 900 to 5000 nM"
"Cc1cc(Nc2ccc(NC(=O)Cc3c[nH]c4ccccc34)cc2)nc(N2CCCC2)n1 [Compound 6.5, 2-(1H-indol-3-yl)-N-(4-((6-methyl-2-(pyrrolidin-1-yl)pyrimidin-4-yl)amino)phenyl)acetamide]",–,1.17,–,< 10,2.2,–,"downregulation of vimentin promoter activity (VimPro-GFP), in words [3, 11]: marked down-regulation of the VimPro-GFP; IC50 (HCT116 tumor organoids; [7]): 2.2 µM; upregulation of E-cadherin promoter activity (EcadPro-RFP), in words [4, 11]: upregulation of EcadPro-RFP"

# Further lines, with some results ahead:
half-life [1] [h],half-life at 10 μM [2] [h],IC50 (cat-CHD1L ATPase; [10]) [nM],Structure (SMILES),IC50 (SW620 tumor organoids; [5]) [µM],IC50 (HCT116 tumor organoids; [6]) [µM],IC50 (SW620 tumor organoids; [9]) [µM],further results
2.86,1.03,500,Cc1cc(N2CCCC2)nc(NCc2ccc(NC(=O)Cc3cc(Br)cs3)cc2)n1 [Compound 6.41],–,21.3,13.5,–
1.48,1.17,> 20000,Cc1cc(Nc2ccc(NC(=O)Cc3ccco3)cc2)nc(N2CCCC2)n1 [Compound 6.39],–,10.8,14.2,–
0.637,1.27,300,Cc1cc(NCc2ccc(NC(=O)Cc3cc(Br)cs3)cc2)nc(N2CCCC2)n1 [Compound 6.33],< 10,11.6,4,"CHD1L enzyme inhibition, in words (cat-CHD1L ATPase; recombinant cat-CHD1L): good enzyme inhibition"
